Experimental data reported in publication PMC10675597, “Design, Synthesis, and Antisickling Investigation of a Thiazolidine Prodrug of TD-7 That Prolongs the Duration of Action of Antisickling Aromatic Aldehyde” (Pharmaceutics, 2023).

Key:
[1] = target: T1, Hb in human normal whole blood (Homo sapiens, UniProt P69905); assay: In-vitro time-dependent oxygen equilibrium study (P50 shift); type: cell-based; settings: 2 mM, normal whole blood 30% hematocrit
T1 construct: normal whole blood (AA) was collected from adult donors; from tissue; host or cells: normal (AA) human whole blood from adult donors, 30% hematocrit
T1 sequence (P69905 2-142 limits assumed): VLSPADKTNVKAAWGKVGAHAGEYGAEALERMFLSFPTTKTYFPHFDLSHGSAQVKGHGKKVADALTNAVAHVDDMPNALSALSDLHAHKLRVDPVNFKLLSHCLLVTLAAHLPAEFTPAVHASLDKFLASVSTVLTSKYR
T1 sequence (P68871 2-147 partner limits assumed): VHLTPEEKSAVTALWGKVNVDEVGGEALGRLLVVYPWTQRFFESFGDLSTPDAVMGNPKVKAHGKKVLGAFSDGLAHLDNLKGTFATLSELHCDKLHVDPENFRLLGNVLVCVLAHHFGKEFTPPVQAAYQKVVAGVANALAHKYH
Method: An oxygen equilibrium curve study was conducted in a time-dependent manner to determine the effect and duration of Pro-7 on Hb affinity for oxygen (P50 shift) following standard procedure. Pro-7, along with the controls TD-7 and DMSO were used for the studies with normal whole blood sample (30% hematocrit). Each compound was incubated with the blood at a final concentration of 2 mM, and aliquot samples were taken at 1, 3, 6, 12 and 24 h and further incubated in IL 237 tonometer (Instrumentation Laboratories, Inc., Lexington, MA, USA) for 10 min at 37 °C, and allowed to equilibrate at oxygen tensions 6, 20, and 40 mmHg. The samples were then aspirated into a Radiometer ABL 800 Automated Blood Gas Analyzer (Copenhagen, Denmark ) to determine the pH, partial pressure of CO2 (pCO2), partial pressure of oxygen (pO2), and Hb oxygen saturation values (SO2). The measured values of pO2 (mmHg) and SO2 at each pO2 value were then subjected to a non-linear regression analysis using the program Scientist (Micromath, Salt Lake City, UT, USA) to estimate P50 as a measure of Hb oxygen affinity as previously reported.
(§1) Human normal whole blood was used to assess the degree of Hb modification and Hb oxygen affinity (P50 shift), while sickle blood was used to investigate RBC sickling inhibition. Pro-7 and the positive control TD-7 were incubated with normal whole blood suspensions. […] For the sickling inhibition study, Pro-7 and the positive control TD-7 were incubated with SS blood suspensions under hypoxic conditions (2.5% O2/97.5% N2), and aliquot blood samples were drawn at three time points (1, 3 and 6 h) and used for assessing RBC morphology. The results summarized in Table 1 and Figure 4A–C show time-dependent effects for all three pharmacodynamic activities. […] Even at the end of the 24-h experiment, Pro-7 activity was still increasing.

[2] = test system: SS cells (homozygous sickle cell blood); assay: In-vitro time-dependent RBC sickling inhibition under hypoxia; type: cell-based, human; settings: 2 mM, SS cells 20% hematocrit, hypoxia (4% oxygen/96% nitrogen)
Method: Red blood cell sickling inhibition studies with Pro-7 and the control TD-7 was conducted using previously reported procedure. Blood suspensions from subjects with homozygous SCD (hematocrit 20%) were incubated under air in the absence or presence of test compounds at 37 °C for 1 h to ensure that binding has attained equilibrium. […] Aliquot samples were fixed with 2% glutaraldehyde solution without exposure to air, and then subjected to microscopic morphological analysis.
Human normal whole blood was used to assess the degree of Hb modification and Hb oxygen affinity (P50 shift), while sickle blood was used to investigate RBC sickling inhibition. […] The results summarized in Table 1 and Figure 4A–C show time-dependent effects for all three pharmacodynamic activities. […] Even at the end of the 24-h experiment, Pro-7 activity was still increasing.

[3] = target: T1, Hb in human normal whole blood; assay: In-vitro time-dependent Hb modification (Hb adduct formation), cation-exchange HPLC; type: cell-based; settings: 2 mM, normal whole blood 30% hematocrit
Method: Pro-7 and the control TD-7 were used to conduct time-dependent Hb modification (Hb adduct formation) studies using normal whole blood as previously reported. A 200 mM stock solution of each compound was made with DMSO. In a 96-well 1.2 mL polypropylene deep-well plate (Thermo Scientific, Hampshire, UK), 2.0 mM concentration of each compound was added to 600 μL of whole blood (30% hematocrit), which was then incubated at 37 °C for 24 h with shaking (at 140 rpm). A control sample was supplemented only with an equivalent volume of DMSO. At different time points (0–24 h), 50 μL aliquots of this mixture were withdrawn from each well using a multichannel pipette and added to respective tubes containing 50 μL of sodium cyanoborohydride (NaBH3CN) and sodium borohydride (NaBH4) mixture (1:1 v/v 50 mM stock) to terminate the Schiff-base reaction, fix the Schiff-base Hb adducts and reduce the free reactive aldehyde. After mixing, the tubes were stored immediately at −80 °C until ready for analysis using cation-exchange HPLC (Hitachi D-7000 Series, Hitachi Instruments, Inc. San Jose, CA, USA) for Hb-compound adduct formation. The observed Hb adducts in %Hb modification were plotted as a function of time (h).
as §1

[4] = In-vitro stability in different pH buffers (aldehyde peak absorbance at 349 nm); type: physicochemical; settings: for Stability (absorbance of aldehyde peak at 349 nm): 1 mM, 37 °C
Method: The stability of Pro-7 and the control TD-7 in different pH buffers (PBS buffer at pH 7.4, KCl·HCl buffer at pH 2.0, and Tris buffer at pH 8.0) was evaluated over time as previously reported. The ionic strength of all buffers was kept constant at 150 mM. A 200 mM stock solution of each compound was prepared using anhydrous DMSO. 1 mM solutions of each of the test compounds TD-7 and Pro-7 were prepared in duplicate for each of the three different pH buffers. […]
An in-vitro time-dependent (1–96 h) stability study of Pro-7 was conducted to inform the formulation of the prodrug. The study was conducted at three different pHs: 2.0, 7.4 and 8.0, which mimic stomach, blood and intestinal pH conditions, respectively. The presence of TD-7 or the rate of appearance of TD-7 upon dissociation of Pro-7 was monitored at 349 nm spectrophotometrically.

1-(2-(3-((6-(hydroxymethyl)pyridin-2-yl)methoxy)-5 methoxyphenyl)thiazolidin-4-yl)propan-1-one [Pro-7]
%Hb O2 Affinity (P50 Shift) ([1]; 1 h): 6.48 ± 1.54% | %Hb O2 Affinity (P50 Shift) ([1]; 3 h): 13.57 ± 5.53% | %Hb O2 Affinity (P50 Shift) ([1]; 6 h): 21.64 ± 10.93% | %Hb O2 Affinity (P50 Shift) ([1]; 12 h): 41.04 ± 10.93% | %Hb O2 Affinity (P50 Shift) ([1]; 24 h): 43.87 ± 3.22% | %Sickling Inhibition ([2]; 1 h): 12.53% | %Sickling Inhibition ([2]; 3 h): 40.76% | %Sickling Inhibition ([2]; 6 h): 52.04% | %Hb Modification (Hb Adduct) ([3]; 0 h): 0.00 ± 0.00% | %Hb Modification (Hb Adduct) ([3]; 1 h): 7.10 ± 4.40% | %Hb Modification (Hb Adduct) ([3]; 2 h): 14.30 ± 6.80% | %Hb Modification (Hb Adduct) ([3]; 4 h): 17.50 ± 7.10% | %Hb Modification (Hb Adduct) ([3]; 8 h): 29.70 ± 10.9% | %Hb Modification (Hb Adduct) ([3]; 12 h): 41.20 ± 15.8% | %Hb Modification (Hb Adduct) ([3]; 24 h): 54.80 ± 21.8% | degradation to release TD-7 (in words) ([4]; pH 2.0): very fast degradation | time for formation of TD-7 from Pro-7 to be almost completed ([4]; pH 2.0): ≤ 1 h | Stability (absorbance of aldehyde peak at 349 nm) ([4]; pH 2.0, 0 hr): 1.22 ± 0.4 | Stability (absorbance of aldehyde peak at 349 nm) ([4]; pH 2.0, 1 hr): 3.16 ± 0.2 | Stability (absorbance of aldehyde peak at 349 nm) ([4]; pH 2.0, 2 hr): 3.17 ± 0.09 | Stability (absorbance of aldehyde peak at 349 nm) ([4]; pH 2.0, 3 hr): 3.36 ± 0.03 | Stability (absorbance of aldehyde peak at 349 nm) ([4]; pH 2.0, 6 hr): 3.27 ± 0.02 | Stability (absorbance of aldehyde peak at 349 nm) ([4]; pH 2.0, 24 hr): 3.05 ± 0.00 | Stability (absorbance of aldehyde peak at 349 nm) ([4]; pH 7.4, 0 hr): 0.14 ± 0.01 | Stability (absorbance of aldehyde peak at 349 nm) ([4]; pH 7.4, 1 hr): 0.16 ± 0.00 | Stability (absorbance of aldehyde peak at 349 nm) ([4]; pH 7.4, 2 hr): 0.17 ± 0.00 | Stability (absorbance of aldehyde peak at 349 nm) ([4]; pH 7.4, 3 hr): 0.09 ± 0.09 | Stability (absorbance of aldehyde peak at 349 nm) ([4]; pH 7.4, 6 hr): 0.22 ± 0.00 | Stability (absorbance of aldehyde peak at 349 nm) ([4]; pH 7.4, 24 hr): 0.49 ± 0.00 | Stability (absorbance of aldehyde peak at 349 nm) ([4]; pH 7.4, 28 hr): 0.55 ± 0.00 | Stability (absorbance of aldehyde peak at 349 nm) ([4]; pH 7.4, 48 hr): 0.98 ± 0.02 | Stability (absorbance of aldehyde peak at 349 nm) ([4]; pH 7.4, 56 hr): 1.10 ± 0.03 | Stability (absorbance of aldehyde peak at 349 nm) ([4]; pH 7.4, 72 hr): 1.77 ± 0.07 | Stability (absorbance of aldehyde peak at 349 nm) ([4]; pH 7.4, 96 hr): 2.59 ± 0.03 | Stability (absorbance of aldehyde peak at 349 nm) ([4]; pH 8.0, 0 hr): 0.14 ± 0.00 | Stability (absorbance of aldehyde peak at 349 nm) ([4]; pH 8.0, 1 hr): 0.12 ± 0.00 | Stability (absorbance of aldehyde peak at 349 nm) ([4]; pH 8.0, 2 hr): 0.15 ± 0.00 | Stability (absorbance of aldehyde peak at 349 nm) ([4]; pH 8.0, 3 hr): 0.17 ± 0.00 | Stability (absorbance of aldehyde peak at 349 nm) ([4]; pH 8.0, 6 hr): 0.24 ± 0.01 | Stability (absorbance of aldehyde peak at 349 nm) ([4]; pH 8.0, 24 hr): 0.64 ± 0.16 | Stability (absorbance of aldehyde peak at 349 nm) ([4]; pH 8.0, 28 hr): 1.00 ± 0.05 | Stability (absorbance of aldehyde peak at 349 nm) ([4]; pH 8.0, 48 hr): 1.33 ± 0.32 | Stability (absorbance of aldehyde peak at 349 nm) ([4]; pH 8.0, 72 hr): 1.89 ± 0.04 | Stability (absorbance of aldehyde peak at 349 nm) ([4]; pH 8.0, 96 hr): 1.86 ± 0.01 | degradation to release TD-7 (in words) ([4]; pHs 7.4 and 8.0): slow degradation | time for TD-7 to be detected in a significant amount ([4]; pHs 7.4 and 8.0): ~ 6 h | time to full dissociation into TD-7 ([4]; pHs 7.4 and 8.0): approximately four days
